The values below come from patent publication US10196668B2, “Reagents and methods for screening MPS I, II, IIIA, IIIB, IVA, VI, and VII” (University of Washington through its Center for …, priority 2013, dated 2019).

The target of assay [1] is T1, alpha-L-iduronidase (MPS-I enzyme) (Homo sapiens, UniProt P35475).
T1 construct: from tissue; host or cells: dried blood spot (3 mm punch)
T1 sequence (P35475 28-653): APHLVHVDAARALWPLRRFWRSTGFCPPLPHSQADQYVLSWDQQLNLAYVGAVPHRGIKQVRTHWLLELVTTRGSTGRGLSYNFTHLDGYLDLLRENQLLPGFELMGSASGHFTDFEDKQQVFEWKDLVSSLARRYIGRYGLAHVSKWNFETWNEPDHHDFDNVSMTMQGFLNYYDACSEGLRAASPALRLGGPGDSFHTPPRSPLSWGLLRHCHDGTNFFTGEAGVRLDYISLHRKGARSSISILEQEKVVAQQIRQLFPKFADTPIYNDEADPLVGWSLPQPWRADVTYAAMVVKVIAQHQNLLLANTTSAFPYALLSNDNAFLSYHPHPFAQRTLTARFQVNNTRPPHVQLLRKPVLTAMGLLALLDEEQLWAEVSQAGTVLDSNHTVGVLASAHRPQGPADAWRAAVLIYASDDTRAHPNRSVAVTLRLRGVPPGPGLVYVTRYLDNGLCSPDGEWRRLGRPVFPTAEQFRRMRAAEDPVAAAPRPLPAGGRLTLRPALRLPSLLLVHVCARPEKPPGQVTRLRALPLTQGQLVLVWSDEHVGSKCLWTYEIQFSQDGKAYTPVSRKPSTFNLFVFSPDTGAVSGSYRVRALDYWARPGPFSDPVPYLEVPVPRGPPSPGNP
The experiment in a line: MPS-I enzyme assay with dried blood spot punch, LC/MSMS. The assay is classed as biochemical. The protocol: The original and alternative MPS-I substrates were compared in side-by-side enzyme assays as follows: 0.5 mM substrate, 3.5 uM internal standard in 30 uL of buffer (100 mM ammonium formate, pH 4.0). A 3 mm punch of a dried blood spot was added, and the mixtures were incubated with shaking for 16 hours at 37 deg C. The reactions were quenched by addition 120 uL of acetonitrile. The wells were centrifuged, and 120 uL of supernatant was transferred to a new well. The sample was diluted by addition of 120 uL of water, and 10 uL was injected onto the LC/MSMS system. The LC and MS/MS conditions are as published (Spacil, Z., Tatipaka, H., Barcenas, M., Scott, C. R., Turecek, F., Gelb, M. H. (2012) “High-Throughput Assay of 9 Lysosomal Enzymes for Newborn Screening.” Clinical Chemistry., 59 (3), […]). A blank assay is also carried out in which a blood-free 3 mm punch of filter paper is substituted for the dried blood spot. The blank is incubated and processed as above.

Assay [2] has as its system N-acetylgalactosamine-6-sulfatase (GALNS). The experiment in a line: GALNS (MPS-IVA) assay with beta-NGA and Z-PUG-NAc, UHPLC-MS/MS. In kind it is biochemical, human. The protocol: (§1) Experiment 1. A 3 mm punch of a dried blood spot from a random newborn is incubated with 0.03 mL of assay cocktail consisting of 1 mM GALNS substrate in 50 mM ammonium formate pH 4.0 containing 7.5 mM barium acetate, 5.0 mM cerium acetate, 1 mM Z-PUG-NAc, and 0.01 mg of bacterial beta-N-acetylgalactosaminidase. The mixture also contains 0.005 mM internal standard. After 16 hrs at 37° C. with shaking, the mixture is quenched with 0.12 mL of acetonitrile and the sample plate is centrifuged to pellet the precipitate. Supernatant (0.12 mL) is transferred to a new plate, and 0.12 mL of water is added. The plate is placed on the autosampler of the UHPLC-MS/MS instrument (Waters Xevo TQ MS/MS with a Waters Acquity UHPLC system). A portion of the sample (0.01 mL) is injected, and the GALNS product (substrate minus sulfate), the internal standard, and the aglycones derived from the GALNS product and internal standard are quantified by multiple reaction monitoring (MS/MS). Note the internal standard added, like the GALNS product, is converted to its aglycone by the addition of bacterial beta-N-acetylgalactosaminidase.
(§2) Experiment 2. Experiment 2 is the same as Experiment 1 but uses a punch of filter paper (no blood). Most of the internal standard is converted to the aglycone showing that the added beta-NGA is working. The amount of aglycone is only 42,000, about 10-fold lower than that seen in the presence of blood. […] Furthermore when a dried blood spot from a confirmed Morquio A patient is used, the amount of aglycone is similar to that seen in the absence of blood (45,000) showing that the assay is working to detect only the GALNS present in blood from a non-affected individual.
(§3) Experiment 3. […] As expected, most of the internal standard is not converted to its aglycone, because is no beta-NAG and any hexosaminidase A coming from the blood is blocked by Z-PUG-NAc. The amount of GALNS product is 121,000 and the amount of aglycone is 42,900.
(§4) Experiment 4. Experiment 4 is the same as Experiment 3, but without blood. […] Thus, most of the 121,000 product counts in Experiment 3 is due to GALNS. The product counts in Experiment 3 cannot be due to hexosaminidase A, because only beta-NGA generates the aglycone. The amount of aglycone in Experiments 3 and 4 are similar, and this represents aglycone present in the GALNS substrate as a contaminant.
(§5) Experiment 5. […] Most of the internal standard is converted to its aglycone as expected because beta-NGA is present. The signal for aglycone is 1,350,000, much larger than in Experiment 1.
(§6) Experiment 6. Experiment 6 contains blood but no beta-NGA and no Z-PUG-NAc. The amount of GALNS product is 110,000 instead of 25,100 as in Experiment 5, which is due to the action of GALNS on the GALNS substrate. Because beta-NGA is absent, only a small amount of GALNS product is converted to aglycone, but the amount of aglycone remains high at 1,110,000. This is because of the action of hexosaminidase A in the blood on GALNS substrate in the absence of Z-PUG-NAc.
(§7) Experiments 7 and 8. Experiments 7 and 8 are with filter paper (no blood). […] As expected, most of the internal standard is converted to aglycone in Experiment 7, but not in Experiment 8. […] These can be removed by a further round of purification of GALNS substrate.

Assay [3] concerns the target T2, N-acetylgalactosamine-6-sulfatase (GALNS) (Homo sapiens, UniProt P34059).
T2 construct: Representative assays use dried blood spots on newborn screening cards as a source of GALNS; from tissue; host or cells: dried blood spot from a random newborn (3 mm punch)
T2 sequence (P34059 27-522): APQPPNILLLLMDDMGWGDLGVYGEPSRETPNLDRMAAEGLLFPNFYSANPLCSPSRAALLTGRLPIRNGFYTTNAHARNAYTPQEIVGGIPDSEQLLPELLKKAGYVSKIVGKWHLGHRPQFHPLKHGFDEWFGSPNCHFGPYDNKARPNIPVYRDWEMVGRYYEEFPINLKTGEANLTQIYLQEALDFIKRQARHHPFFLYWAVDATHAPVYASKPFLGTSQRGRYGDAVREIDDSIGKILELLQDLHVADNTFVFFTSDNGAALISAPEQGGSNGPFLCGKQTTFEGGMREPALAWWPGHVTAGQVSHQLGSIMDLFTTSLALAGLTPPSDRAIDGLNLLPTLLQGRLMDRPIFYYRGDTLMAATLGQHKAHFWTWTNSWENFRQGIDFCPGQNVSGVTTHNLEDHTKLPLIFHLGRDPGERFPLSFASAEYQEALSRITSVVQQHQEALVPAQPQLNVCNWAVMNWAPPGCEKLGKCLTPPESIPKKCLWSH
The description is as above. In kind it is biochemical. As to the method:
as §1, §2, §3, §4, §5, §6, §7

Where [4] appears, read: Expt. 1: 3 mm dried blood spot punch, 1 mM Z-PUG-NAc, 0.01 mg beta-NGA.
[5] abbreviates: Expt. 2: 3 mm filter paper punch (no blood), 1 mM Z-PUG-NAc, 0.01 mg of bacterial enzyme.
Where [6] appears, read: Expt. 3: 3 mm dried blood spot punch, 1 mM Z-PUG-NAc, no beta-NGA.
Where [7] appears, read: Expt. 4: 3 mm filter paper punch (no blood), 1 mM Z-PUG-NAc, no beta-NGA.
The mark [8] stands for this setting: Expt. 5: 3 mm dried blood spot punch, 0.01 mg beta-NGA, no Z-PUG-NAc.
[9] abbreviates: Expt. 6: 3 mm dried blood spot punch, Nothing added (no beta-NGA, no Z-PUG-NAc).
Where [10] appears, read: Expt. 7: 3 mm filter paper punch (no blood), 0.01 mg beta-NGA, no Z-PUG-NAc.
Setting [11] is: Expt. 8: 3 mm filter paper punch (no blood), Nothing added.

Counter-ions that a name gives are not always drawn.

Take `CC(=O)N(CCCCCCNC(=O)c1ccccc1)CCC(=O)Nc1ccc(OC2OC(C(=O)O)C(O)C(O)C2O)cc1` (centres unmarked) [Alternative MPS-I]: the “Enzymatic Activity” value in assay [1] (0.5 mM substrate, 3 mm dried blood spot punch, pH 4.0, 16 hours at 37 deg C) is reported as 2.5 umole/hr/L blood. Further, the “blood-no blood assay ratio” value in assay [1] (activity with dried blood spot punch to that with blood-free punch) came out at 34.
As to `[2H]c1c([2H])c([2H])c(C(=O)NCCCCCN(CCC(=O)Nc2ccc(OC3OC(CO)C(O)C(O)C3NC(C)=O)cc2)C(=O)CCCC)c([2H])c1[2H]` (centres unmarked) [GALNS internal standard], the “GALNS internal standard peak area” value in assay [2] (setting [4]) is 278; in assay [2] (setting [5]) it was 3,290; in assay [2] (setting [6]), 23,500; in assay [2] (setting [7]) it was 14,700; in assay [2] (setting [8]), 852; in assay [2] (setting [9]) it was 17,900. The “GALNS internal standard peak area” value is 1,920 in assay [2] (setting [10]) and 12,100 in assay [2] (setting [11]). Further, the “internal standard aglycone peak area” value is 54,400 in assay [2] (setting [4]); 15,900 in assay [2] (setting [5]); 940 in assay [2] (setting [6]); 412 in assay [2] (setting [7]); 49,200 in assay [2] (setting [8]); 17,100 in assay [2] (setting [9]). For the same compound, the “internal standard aglycone peak area” value in assay [2] (setting [10]) was 22,200; in assay [2] (setting [11]), 648.
Turning to `CCCCC(=O)N(CCCCCNC(=O)c1ccccc1)CCC(=O)Nc1ccc(OC2OC(COS(=O)(=O)O)C(O)C(O)C2NC(C)=O)cc1` [GALNS substrate, Sodium ((2R,3R,4R,5R,6S)-5-acetamido-6(4(3(N (5-benzamidopentyl)-pentanamido)propanamido)phenoxy)-3,4-dihydroxytetrahydro-2H-pyran-2-yl)methyl sulfate], the “GALNS product (substrate without sulfate) peak area” value in assay [3] (setting [4]) is recorded as 46,100; in assay [3] (setting [6]), 121,000; in assay [3] (setting [8]), 25,100; in assay [3] (setting [9]), 110,000; in assay [2] (setting [5]), 422; in assay [2] (setting [7]), 753. Also, the results for the “GALNS product (substrate without sulfate) peak area” value in assay [2] (setting [10]) and in assay [2] (setting [11]) were 253 and 820, respectively. Besides, the “aglycone peak area (product without sugar)” value in assay [3] (setting [4]) is on record as 411,000; in assay [2] (setting [5]), 42,000; in assay [2] (setting [6]), 42,900; in assay [2] (setting [7]), 22,700; in assay [2] (setting [8]), 1,350,000; in assay [2] (setting [9]), 1,110,000. The “aglycone peak area (product without sugar)” value in assay [2] (setting [10]) was 19,800; in assay [2] (setting [11]), 14,500. The “amount of aglycone (peak area)” value in assay [2] (dried blood spot from a confirmed Morquio A patient, 1 mM Z-PUG-NAc, 0.01 mg beta-NGA) is 45,000.
